Laboratory results reported in patent publication US20150320774A1, “FORMULATIONS OF CYCLOPHOSPHAMIDE LIQUID CONCENTRATE” (AuroMedics Pharma LLC, priority 2014, published 2015).
Read-outs that look alike come from different tables or passages of the source.

What was measured:
physchem = conditions: organic solvent or mixture
Text: In this example, studies were initiated to determine the solubility of cyclophosphamide monohydrate in pharmaceutically acceptable solvents such as propylene glycol, polyethylene glycol and ethanol.

[1] = 500 mg/ml; for colour of solution upon storage: all temperature conditions
Experimental: Since these solvents provided more than adequate solubility, the stability of the solutions containing cyclophosphamide at a concentration of 500 mg/ml was examined.

In the case of `O.O=P1(N(CCCl)CCCl)NCCCO1` (stereo not shown) [cyclophosphamide monohydrate, 2-[bis(2-chloroethyl)amino]-tetrahydro-2H-1,3,2-oxazaphosphorine-2-oxide monohydrate], the solubility (physchem; ethanol) is reported as greater than 500 mg/mL, the solubility (physchem; polyethylene glycol) is reported as greater than 500 mg/mL and the solubility (physchem; propylene glycol) is reported as greater than 500 mg/mL. The degradation ([1]; PEG 400 as sole solvent) was “Significant degradation”, the “colour of solution upon storage” value ([1]; PEG 400 as sole solvent) was “turning visibly yellow in color” and the degradation ([1]; PG as sole solvent) was “Significant degradation”. The “colour of solution upon storage” value ([1]; PG as sole solvent) was “turning visibly yellow in color”.
